Test [1] relates to GSC83 and GBM43 cells. Put plainly: Cell viability / proliferation after NSC, IR, TMZ alone or combined. Format: cell-based. Conditions: NSC combined with IR or/and TMZ vs single treatments, 72 hours.
Test [2] deals with GSC83 and GBM43 cells. In words: Annexin V/propidium iodide flow cytometry after NSC, IR, TMZ alone or combined. Conditions: NSC combined with IR or/and TMZ vs single treatments, 48 hours. It counts as cell-based. A general note: In flow cytometry, cells or beads pass a laser one at a time.
For test [3], the system named is LC3B lipidation and p62/SQSTM1 in GSCs and GBM cells. Put plainly: Immunoblot of autophagy markers after NSC, IR, TMZ. Format: cell-based. Conditions: NSC with IR or/and TMZ. On the technique in general: Immunoblotting shows a protein as a band on a membrane.
Description: (A) GBM stem-like cells, GSCTS576, and patient-derived xenograft cells, GBM44, were treated with NSC, IR or/and TMZ at the indicated concentrations and combinations for 72 hours. Thereafter, cells were analyzed for cellular viability. Data are shown as mean±SD, n=3 of biological replicates. #, Combination vs. TMZ, P<0.01; &, Combination vs. IR, P<0.01; *, Combination vs. NSC, P<0.01 (B) GSCTS576 and GBM44 cells were treated with NSC, IR or and TMZ with indicated concentration or does for 48 hours, stained with Annexin V/PI, and analyzed by flow cytometry; n=3 biological replicates. Data are shown as mean±SD. #, Combination vs. TMZ, P<0.01; &, Combination vs. IR, P<0.01; *, Combination vs. NSC, P<0.01. (C) TS576 GSCs and GBM44 with indicated treatments were collected and analyzed for levels of the indicated proteins. […]
To determine the effect of combination treatment with NSC185058 and irradiation (IR) or/and TMZ, stem-like glioma cells (GSC83) and patient-derived xenograft GBM (GBM43) cells, were treated with NSC185058, TMZ, IR or the combination of two or three treatments and examined cellular proliferation modulation. […] Toward this end, we analyzed protein expression of autophagy marker protein LC3B and p62/SQSTM1, an established autophagy substrate, DNA damage indicator γH2AFX/γH2AX and apoptosis indicator cleaved CASP3/caspase-3 in both tested cell lines.
The test system of test [4] is LC3B, p62/SQSTM-1 and LAMP2 in GSC M83 and JK83 cells. In words: Immunoblot of autophagy markers (LC3B, p62, LAMP2) in GSCs treated with AZD2014 and NSC. Format: cell-based. Conditions: NSC in the presence of AZD2014. Here is the method: FIG. 5. A mTORC1/2 inhibitor AZD2014 inhibited cell survival, mTORC1 and mTORC2 activities in GSCs and glioma cells. (A) GSC M83 and JK83 and glioma cells U87 were treated with indicated concentration of AZD2014 for 72 h, then cell viability was evaluated. (B) GSC M83 and JK83 were treated with the indicated concentration of AZD2014 for 1 hr, or with 2 μM AZD2014 for the specified time. Cells were collected for immunoblot analysis. β-actin was used as a loading control; Results are representative of 2 independent experiments. *P<0.05, **P<0.01, paired two-way Student's t-test. Data are representative from three independent experiments with similar results.
FIG. 6. NSC enhanced the cytotoxicity of a mTORC1/2 inhibitor AZD2014 in GSCs. (A) GSC M83 and JK83 were exposed to DMSO control vs AZD2014 vs NSCs vs AZD2014 in combination with NSC for 72 hr. Cells were collected for immunoblot analysis using indicated antibodies. (B) Immunofluorescence analyses for LC3B puncta in GSC M83 and JK83 cells with indicated treatments. (C and D) GSC M83 and JK83 and/or neural progenitor cells (NPC) were treated as indicated in (A), cell viability was tested at 72 h after treatment (C), and cell apoptosis was measured by Annexin V FACS assay 48 h after treatment. Data are representative from three independent experiments with similar results. […]

Test [5] deals with LC3B puncta in GSC M83 and JK83 cells. Put plainly: LC3B immunofluorescence (puncta, autophagosomes). Format: cell-based. Conditions: NSC in cells treated with AZD2014. Here is the method:
FIG. 6. NSC enhanced the cytotoxicity of a mTORC1/2 inhibitor AZD2014 in GSCs. (A) GSC M83 and JK83 were exposed to DMSO control vs AZD2014 vs NSCs vs AZD2014 in combination with NSC for 72 hr. Cells were collected for immunoblot analysis using indicated antibodies. (B) Immunofluorescence analyses for LC3B puncta in GSC M83 and JK83 cells with indicated treatments. (C and D) GSC M83 and JK83 and/or neural progenitor cells (NPC) were treated as indicated in (A), cell viability was tested at 72 h after treatment (C), and cell apoptosis was measured by Annexin V FACS assay 48 h after treatment. Data are representative from three independent experiments with similar results.
Immunofluorescent staining. GSCs were seeded onto LabTek CC2-treated tissue culture slides (Thermo Fisher) and cultured for 24 hours. Cells were then fixed with 4% formaldehyde (Fisher) for 15 min, and permeabilized with 0.1% Triton X-100, and then blocked with AquaBlock (East Coast Bio, North Berwick, Me.) for 60 minutes. The slides were incubated with indicated primary antibodies according to the manufacturer's instructions. After being washed for three times with PBS-T, cells were incubated with secondary antibody (Alexa 488 and 594, 1:200) and DAPI-containing mounting solution Vectashield (Vector Laboratories). Cells were analyzed on a Nikon inverted microscope Eclipse Ti-U equipped with a digital camera. […]

The test system of test [6] is GSC JK83 orthotopic xenografts. Put plainly: GSC JK83 orthotopic brain tumor xenograft model (survival, BLI, tissue staining). It counts as in vivo, mice. The text has this: FIG. 7. NSC enhance anticancer efficacy of AZD2014 in a patient-derived GSC xenograft model. […] Treatments were started at one week post-implantation. Bioluminescent (BLI) images were taken after the last treatment, and representative images are shown. Scale bar, photons/sec/cm2/steradian. (B) Kaplan-Meier of mice bearing GSC JK83 orthotopic xenografts with indicated treatments. (C) The brains of mice bearing orthotopic xenografts with indicated treatments were collected for immunohistochemical evaluation using indicating antibody. *P<0.05, **p<0.01, […]. Data are representative from three independent experiments with similar results.
Frozen brain tissue sections with GBM xenografts were dried and then fixed in were fixed in 4% paraformaldehyde (PFA) in PBS for 5 minutes. Tissue sections were blocked with AquaBlock (East Coast Bio, North Berwick, Me.) for an hour and then were probed with appropriate primary antibodies 4° C. overnight. Tissue sections were incubated with Alexa 488 or 594 labelled secondary antibodies (1:200) and DAPI-containing mounting solution Vectashield (Vector Laboratories), and representative images were photographed using a Nikon inverted microscope Eclipse Ti-U equipped with a digital camera.
To determine whether the enhancement of AZD2014 therapeutic efficiency by combination with NSC measured in vitro extends to an orthotopic model, GSC JK83 glioma spheres were employed to initiate intracerebral xenografts in mice.

For test [7], the system named is intracranial PDX GBM39 tumor xenografts. Put plainly: Intracranial PDX GBM39 xenograft model (BLI, body weight, survival). Conditions: monotherapy.
Description: (A) Designs for Combination Therapy of Targeting Autophagy using NSC (150 mg/kg, Monday, Wednesday, and Friday), IR (2 Gy/day for 5 consecutive days), TMZ (100 mg/kg/day), RT+NSC, TMZ+NSC or RT+TMZ+NSC for PDX GBM39 model. (B) Body weight curves of different groups. Values represent the mean±SEM (n=8). *p<0.05, **p<0.01 compared to vehicle controls. (C) Relative changes in bioluminescent (BLI) signals of intracranial xenograft tumors with vehicle control or indicated treatment. n=8/group. *p<0.05, **p<0.01 compared to vehicle controls. Values represent the mean±SEM (n=8). *p<0.05, **p<0.01 compared to vehicle controls. (D) Representative bioluminescent images of mice-bearing intracranial xenografts with indicated treatments. NSC, IR, TMZ, and the indicated combinations. Treatments were started at day 7 post implantation. Mice were imaged after the last treatment. […] (E) Kaplan-Meier (left) and log-rank p value analyses (right) of mice bearing GSC 83 orthotopic xenografts with indicated treatments. […]
Athymic (Ncr nu/nu) mice at 6-8 week age were obtained from Taconic Farms. […] When Bioluminescent imaging (BLI) was detected in all animal, which were randomized into different treatment groups. […] Mice were monitored every day until the onset of neurological symptoms due to tumor burden. The tumor growth was monitored using the bioluminescent imaging (BLI) station (Caliper Life Sciences).

`S=C(Nc1ccccn1)c1ccccn1` [NSC185058, N-pyridin-2-yl-pyridine-2-carbothioamide]: the tumor cell proliferation entry with GSC83 and GBM43 cells [1] was “more reduction in tumor cell proliferation cells than single treatments”. Further, the “apoptotic cells (Annexin V/PI)” value in the test with GSC83 and GBM43 cells [2] was “more apoptotic cells than single treatments”. The “sensitization to IR or/and TMZ (LC3B lipidation, p62)” value in test [3] was “sensitized the tested cells to IR or/and TMZ by suppressing LC3B lipidation and increasing p62”. Further, in test [4], the “autophagy markers (LC3B conversion, p62 and LAMP2 degradation)” value was “attenuated autophagy induction”. In addition, in test [5], the “autophagosomes number (LC3 B immunofluorescence)” value is recorded as “markedly decreased”. Besides, the “autophagic flux (LC3B puncta staining) in brain tumor xenografts” value in test [6] (NSC (50 mg/kg) alone) is reported as “slight impact on autophagic flux”. For the same molecule, the “AZD2014-induced autophagy response in the brain” value in test [6] (NSC (50 mg/kg) in the combination protocol) is given as “strongly attenuated AZD2014-induced autophagy response”. Moreover, in test [6] (NSC (100 mg/kg), AZD2014 (50 mg/kg), alone or combined, vs control), the mouse survival result is reported as “modest but significant effects on mouse survival”. For the same molecule, the “effect of NSC on inhibition efficiency of AZD2014 on xenograft growth” value in test [6] (combination treatment) is reported as “enhanced the inhibition efficiency of AZD2014”. Besides, the “survival analysis (growth-suppressive effects, FIG. 4E)” value in test [7] is recorded as “not IR or NSC single treatment resulted in growth-suppressive effects”.

Values taken from patent US11793816B2, “Methods for enhancing cytotoxic cancer therapy through inhibition of ATG4B” (Northwestern University, priority 2019, dated 2023).
